Here are results for ten molecules from ChEMBL document CHEMBL4190299, “Design, Synthesis, and Cancer Cell Growth Inhibitory Activity of Triphenylphosphonium Derivatives of the Triterpenoid Betulin” (J Nat Prod, 2017).

Active and inactive are the calls of the source. The rule behind the calls is not given here.

Assay [1] is described as follows: Cytotoxicity against human HSF cells assessed as reduction in cell viability after 72 hrs by MTT assay. The assay is classed as cell-based. Background: Tetrazolium assays rely on reduction of a dye to a coloured formazan, in cell work by metabolically active cells.
Assay [2] concerns MCF7. The assay can be described thus: cells. As to conditions: Homo sapiens, MCF7, 72 h.
Description: Cytotoxicity against human MCF7 cells assessed as reduction in cell viability after 72 hrs by MTT assay
The test system of assay [3] is PC-3. Description: Cytotoxicity against human PC3 cells assessed as reduction in cell viability after 72 hrs by MTT assay. The class given is functional, cell-based. As to conditions: PC-3, 72 h.
The subject of assay [4] is PC-3. The assay can be described thus: Induction of cell cycle arrest in human PC3 cells assessed as effect on S phase at cytotoxic IC50 after 48 hrs by propidium iodide staining based flow cytometry. The class given is functional.
Assay [5] deals with PC-3. Description: Induction of cell cycle arrest in human PC3 cells assessed as effect on G2/M phase at cytotoxic IC50 after 48 hrs by propidium iodide staining based flow cytometry. The assay is classed as functional. A general note: In flow cytometry, cells or beads pass a laser one at a time.
Assay [6] deals with PC-3. The assay can be described thus: Induction of cell cycle arrest in human PC3 cells assessed as effect on G0/G1 phase at cytotoxic IC50 after 48 hrs by propidium iodide staining based flow cytometry. The class given is functional.
Assay [7] has as its system PC-3. The assay can be described thus: Induction of mitochondrial membrane potential loss in human PC3 cells assessed as fluorescence intensity at cytotoxic IC50 after 48 hrs by TMRE dye-based fluorescence assay based flow cytometry (reference value: 210.8). The assay is classed as functional.
Assay [8] deals with PC-3. Description: Induction of mitochondrial membrane potential loss in human PC3 cells assessed as fluorescence intensity at cytotoxic IC50 after 48 hrs by TMRE dye-based fluorescence assay based flow cytometry relative to untreated control. The class given is functional.

A word on the IC50: it is the point on the concentration scale where inhibition reaches its midpoint. As to `C=C(C)[C@@H]1CC[C@]2(COC(=O)CCC[P+](c3ccccc3)(c3ccccc3)c3ccccc3)CC[C@]3(C)[C@H](CC[C@@H]4[C@@]5(C)CC[C@H](O)C(C)(C)[C@@H]5CC[C@]43C)[C@@H]12`, the values for the half-inhibitory concentration (IC50) in assay [1], in assay [2] and in assay [3] were 2.1 µM, 0.43 µM and 0.16 µM, respectively.

`C=C(C)[C@@H]1CC[C@]2(COC(=O)C[P+](c3ccccc3)(c3ccccc3)c3ccccc3)CC[C@]3(C)[C@H](CC[C@@H]4[C@@]5(C)CC[C@H](OC(=O)C[P+](c6ccccc6)(c6ccccc6)c6ccccc6)C(C)(C)[C@@H]5CC[C@]43C)[C@@H]12`: the IC50 in assay [1] amounted to 5.6 µM; in assay [2] it was 8.7 µM; in assay [3] it was 6.9 µM.

Regarding `C=C(C)[C@@H]1CC[C@]2(COC(=O)CCCC[P+](c3ccccc3)(c3ccccc3)c3ccccc3)CC[C@]3(C)[C@H](CC[C@@H]4[C@@]5(C)CC[C@H](O)C(C)(C)[C@@H]5CC[C@]43C)[C@@H]12.[Br-]`, the IC50 in assay [1] turned out to be 1.5 µM; in assay [2], 0.7 µM; in assay [3], 0.12 µM. The result in assay [4], in assay [5] and in assay [6] was inactive. Also, in assay [7], the Flu intensity was determined as 186.6.

On to `C=C(C)[C@@H]1CC[C@]2(COC(=O)CCCCBr)CC[C@]3(C)[C@H](CC[C@@H]4[C@@]5(C)CC[C@H](OC(=O)CCCCBr)C(C)(C)[C@@H]5CC[C@]43C)[C@@H]12`, for which the outcome in assay [4], in assay [5] and in assay [6] was inactive. Further, the Flu intensity in assay [7] is 187.9. Also, the Activity in assay [8] came to 10%.

For the molecule `C=C(C)[C@@H]1CC[C@]2(COC(=O)C[P+](c3ccccc3)(c3ccccc3)c3ccccc3)CC[C@]3(C)[C@H](CC[C@@H]4[C@@]5(C)CC[C@H](O)C(C)(C)[C@@H]5CC[C@]43C)[C@@H]12`, the figures for the half-maximal inhibitory concentration (IC50) in assay [1], in assay [2] and in assay [3] were 9.9 µM, > 10 µM and 6.8 µM, respectively.

Turning to `C=C(C)[C@@H]1CC[C@]2(COC(=O)CCCC[P+](c3ccccc3)(c3ccccc3)c3ccccc3)CC[C@]3(C)[C@H](CC[C@@H]4[C@@]5(C)CC[C@H](OC(=O)CCCC[P+](c6ccccc6)(c6ccccc6)c6ccccc6)C(C)(C)[C@@H]5CC[C@]43C)[C@@H]12.[Br-].[Br-]`, the figures for the IC50 in assay [1], in assay [2] and in assay [3] were 0.76 µM, 0.48 µM and 0.47 µM, respectively. For the same molecule, the outcome in assay [4], in assay [5] and in assay [6] was inactive. In assay [7], the Flu intensity was determined as 112.2. Further, the “fold change (FC)” value in assay [8] is recorded as 2.

In the case of `CC[C@]1(O)C[C@@H]2CN(CCc3c([nH]c4ccccc34)[C@@](C(=O)OC)(c3cc4c(cc3OC)N(C)[C@H]3[C@@](O)(C(=O)OC)[C@H](OC(C)=O)[C@]5(CC)C=CCN6CC[C@]43[C@@H]65)C2)C1` [VINBLASTINE], it took 0.5 µM to reach half-maximal inhibition in assay [2] (IC50).

In assay [2], `COc1cccc2c1C(=O)c1c(O)c3c(c(O)c1C2=O)C[C@@](O)(C(=O)CO)C[C@@H]3O[C@H]1C[C@H](N)[C@H](O)[C@H](C)O1` [DOXORUBICIN] showed a 50% inhibitory concentration (IC50) of 0.15 µM.

In the case of `C=C(C)[C@@H]1CC[C@]2(COC(=O)CCC[P+](c3ccccc3)(c3ccccc3)c3ccccc3)CC[C@]3(C)[C@H](CC[C@@H]4[C@@]5(C)CC[C@H](OC(=O)CCC[P+](c6ccccc6)(c6ccccc6)c6ccccc6)C(C)(C)[C@@H]5CC[C@]43C)[C@@H]12.[Br-].[Br-]`, the 50% inhibitory concentration (IC50) is 0.86 µM in assay [1], 0.35 µM in assay [2] and 0.54 µM in assay [3]. In addition, the outcome in assay [4], in assay [5] and in assay [6] was inactive. Further, the Flu intensity in assay [7] stood at 90.1. The “fold change (FC)” value in assay [8] turned out to be 2.

Consider `C=C(C)[C@@H]1CC[C@]2(CO)CC[C@]3(C)[C@H](CC[C@@H]4[C@@]5(C)CC[C@H](O)C(C)(C)[C@@H]5CC[C@]43C)[C@@H]12` [BETULIN], for which the result in assay [4], in assay [5] and in assay [6] was inactive. The Flu intensity in assay [7] was found to be 205.9.
